Target: T1, NEK9 (Homo sapiens, UniProt Q8TD19)
T1 construct: purchased Thermo Fisher Scientific (Life Technologies) SelectScreen
Test: SelectScreen Z'LYTE
Format: biochemical
Summary of the method: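 Percent values come from Thermo SelectScreen profiling of NU5455, combining activity and binding assays. CSF1R was run in Z'LYTE format at Km app ATP, and CAMK1 in Adapta format with ATP listed at 10.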

T1 sequence (Q8TD19 whole entry): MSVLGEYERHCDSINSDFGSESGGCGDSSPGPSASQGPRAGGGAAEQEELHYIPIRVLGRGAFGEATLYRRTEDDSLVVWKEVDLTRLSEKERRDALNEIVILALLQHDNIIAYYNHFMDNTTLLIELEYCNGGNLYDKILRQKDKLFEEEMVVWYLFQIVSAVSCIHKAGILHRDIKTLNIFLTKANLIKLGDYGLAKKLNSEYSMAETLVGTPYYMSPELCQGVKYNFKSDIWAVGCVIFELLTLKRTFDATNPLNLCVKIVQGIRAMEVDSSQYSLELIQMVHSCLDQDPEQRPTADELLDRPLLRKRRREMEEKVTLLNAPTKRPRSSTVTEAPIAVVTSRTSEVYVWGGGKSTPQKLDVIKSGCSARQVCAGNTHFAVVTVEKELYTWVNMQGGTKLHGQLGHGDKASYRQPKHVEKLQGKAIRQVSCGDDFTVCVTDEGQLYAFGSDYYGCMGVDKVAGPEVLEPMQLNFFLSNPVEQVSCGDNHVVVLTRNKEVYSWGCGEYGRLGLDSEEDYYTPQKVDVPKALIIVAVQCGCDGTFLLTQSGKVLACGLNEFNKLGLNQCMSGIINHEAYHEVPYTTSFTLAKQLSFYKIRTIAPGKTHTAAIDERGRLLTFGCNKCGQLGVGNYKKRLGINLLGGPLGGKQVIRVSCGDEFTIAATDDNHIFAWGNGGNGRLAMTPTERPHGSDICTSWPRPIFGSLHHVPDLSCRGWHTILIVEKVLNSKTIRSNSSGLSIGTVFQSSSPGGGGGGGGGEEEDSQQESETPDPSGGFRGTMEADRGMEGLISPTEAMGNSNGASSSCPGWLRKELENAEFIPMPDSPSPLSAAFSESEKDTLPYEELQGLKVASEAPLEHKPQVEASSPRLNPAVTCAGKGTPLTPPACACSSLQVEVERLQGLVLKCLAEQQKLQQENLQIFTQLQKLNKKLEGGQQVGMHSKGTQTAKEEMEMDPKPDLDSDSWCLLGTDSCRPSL

Question: How did the inhibition at 1 µM turn out when `CN(C(=O)CN1CCOCC1)c1ccc2sc3c(-c4cccc5c(=O)cc(N6CC7CCC(C6)O7)oc45)cccc3c2c1` [NU5455] was run?
Answer: -7.2%

— PMC6934184, “Selective DNA-PKcs inhibition extends the therapeutic index of localized radiotherapy and chemotherapy” (The Journal of Clinical Investigation, 2019)
